Publication PMC9990147 (Nature, 2021)
Substitutions are numbered along the chain they refer to. Blank lines part the entries; values can stand above or below the molecule they belong to.

Columns and labels:
human PCFT (SLC46A1) = biological target: T1, human PCFT (SLC46A1) (Homo sapiens, UniProt Q96NT5); assay: cell-based 3H-folic acid uptake at pH […] and […]
T1 sequence (Q96NT5 1-459): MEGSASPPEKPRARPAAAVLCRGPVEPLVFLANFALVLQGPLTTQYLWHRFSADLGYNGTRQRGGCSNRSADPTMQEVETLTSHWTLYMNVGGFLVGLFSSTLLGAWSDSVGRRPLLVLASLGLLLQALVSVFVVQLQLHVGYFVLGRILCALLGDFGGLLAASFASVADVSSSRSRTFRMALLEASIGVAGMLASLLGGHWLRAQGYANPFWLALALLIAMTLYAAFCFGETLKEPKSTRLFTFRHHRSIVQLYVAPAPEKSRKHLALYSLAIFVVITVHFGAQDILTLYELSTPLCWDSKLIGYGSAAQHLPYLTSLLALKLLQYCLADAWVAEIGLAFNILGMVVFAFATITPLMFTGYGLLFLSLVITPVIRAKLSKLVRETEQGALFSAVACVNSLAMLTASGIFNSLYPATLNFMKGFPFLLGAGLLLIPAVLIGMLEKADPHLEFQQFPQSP

[1] = biological target: T2, PCFT (proton-coupled folate transporter, SLC46A1) (Gallus gallus, UniProt F1NJ67); assay: cryo-EM structure at […] Å; format: cell-based
T2 sequence (F1NJ67 1-473): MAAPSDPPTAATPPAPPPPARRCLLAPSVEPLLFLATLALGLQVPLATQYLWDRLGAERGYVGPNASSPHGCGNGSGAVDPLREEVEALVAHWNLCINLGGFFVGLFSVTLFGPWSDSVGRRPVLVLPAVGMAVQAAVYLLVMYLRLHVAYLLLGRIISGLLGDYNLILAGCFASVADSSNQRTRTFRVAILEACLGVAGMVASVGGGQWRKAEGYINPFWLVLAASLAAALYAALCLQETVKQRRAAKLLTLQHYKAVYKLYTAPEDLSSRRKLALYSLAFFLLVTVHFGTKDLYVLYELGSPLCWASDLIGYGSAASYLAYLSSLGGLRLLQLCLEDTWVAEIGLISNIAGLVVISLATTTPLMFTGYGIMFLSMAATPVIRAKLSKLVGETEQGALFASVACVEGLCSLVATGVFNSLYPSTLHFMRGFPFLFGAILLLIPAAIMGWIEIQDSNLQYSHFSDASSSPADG

[2] = biological target: T3, biotinylated chicken PCFT with C-terminal Avi-tag (Gallus gallus (UniProt E6Y8U5 sequence), biotin on the C-terminal Avi-tag); assay: BLI
T3 chain: T2 sequence (F1NJ67 1-473) with L25P, G392S

Molecule: Nc1nc(=O)c2nc(CNc3ccc(C(=O)N[C@@H](CCC(=O)O)C(=O)O)cc3)cnc2[nH]1 [FA, folic acid]
cell-based 3H-folic acid uptake at pH 5.5 and 7.5 (human PCFT (SLC46A1)): The human and chicken homologues transport similar amounts of folic acid to each other and do so only at acidic pH

IC50 [1]: 900 nM
Molecule: Nc1nc2[nH]cc(CCc3ccc(C(=O)N[C@@H](CCC(=O)O)C(=O)O)cc3)c2c(=O)[nH]1 [PMX, pemetrexed]

Kd [2]: 8 nM
B1: PCFT nanobody (high-affinity inhibitory nanobody from a naive llama library) (VHH)
VHH: QVQLVESGGGLVQPGGSLRLSCAASGFTFSRYWMYWVRQAPGKGPEWLSHMNPSGSDIKYTDSVKGRFTISRDNAKNTLYLQMNSLKPDDTAVYYCVADRRALGSPEYWGQGTQVTVSS
